13 molecules from PubChem BioAssay (NCI) can be followed below.

Some test systems named below: SNB-19 CNS; NCI-H23 lung; OVCAR-3 ovarian; SK-MEL-2 melanoma; COLO 205 colon; 786-0 renal; SF-539 CNS; HL-60(TB) leukemia; IGROV1 ovarian; MDA-MB-435; SK-MEL-5 melanoma.
Assay in all cases: NCI-60 cell line screen, 48 h

Values joined by “and” are separate entries in the source; they are usually repeats but may differ in a detail not shown here. Equal entries are not always repeated.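 Where inhibition never reached the appropriate level, the endpoint shown equals the highest concentration tested. Otherwise, values were interpolated linearly from a five-concentration, 48-hour dose response in 96-well plates. At the GI50, growth is halved. Definition used: TGI = concentration required for complete inhibition of growth.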 Some results are limits rather than exact numbers.

For the molecule `Cc1ccc(C(=O)O)cc1S(=O)(=O)Nn1cnc2ccc(S(=O)(=O)Nc3ccccc3C(=O)O)cc2c1=O`, the TGI in the experiment on SNB-19 CNS, in the experiment with NCI-H23 lung, with OVCAR-3 ovarian, with SK-MEL-2 melanoma, in the experiment on COLO 205 colon and in the experiment on 786-0 renal was more than 100 µM in each case. Besides, the TGI in the experiment with SF-539 CNS, with HL-60(TB) leukemia, with IGROV1 ovarian and in the experiment with MDA-MB-435 was more than 100 µM each time.

On to `CCCCCCCCCCCCCCNC(=O)CCC(NC(=O)c1ccc(N(C)Cc2cnc3nc(N)nc(N)c3n2)cc1)C(=O)NCCCCCCCCCCCCCC` (stereo unspecified), for which the TGI is more than 61.4 µM in the experiment with SNB-19 CNS; 20.8 µM in the experiment with NCI-H23 lung; more than 46 µM in the experiment on OVCAR-3 ovarian; more than 61.9 µM in the experiment on SK-MEL-2 melanoma; more than 81.7 µM with SK-MEL-5 melanoma; more than 62.9 µM with COLO 205 colon. Moreover, the TGI in the experiment on 786-0 renal came out at 52.1 µM; with SF-539 CNS it was 16.3 µM; with HL-60(TB) leukemia, 0.758 µM; in the experiment on IGROV1 ovarian, 27.3 µM; in the experiment with MDA-MB-435, 25.6 µM.

Turning to `COC(=O)C([C@H](NC1(c2ccccc2)c2ccccc2-c2ccccc21)C(=O)OC)N(NC(=O)OCc1ccccc1)C(=O)OCc1ccccc1` (mixture of isomers), the TGI in the experiment with SNB-19 CNS, with NCI-H23 lung, in the experiment with OVCAR-3 ovarian, in the experiment with SK-MEL-2 melanoma, in the experiment with SK-MEL-5 melanoma and with COLO 205 colon was more than 100 µM each time. Moreover, the TGI with 786-0 renal, in the experiment on SF-539 CNS, with HL-60(TB) leukemia, with IGROV1 ovarian and with MDA-MB-435 was more than 100 µM each time.

For the molecule `CC[C@@H]1CC[C@@H]2[C@H](CC[C@]3(C)[C@@H](OC(C)=O)CC[C@@H]23)[C@H]1COC(C)=O`, the TGI was more than 100 µM with SNB-19 CNS; 79.1 µM in the experiment with NCI-H23 lung; 34.6 µM in the experiment on OVCAR-3 ovarian; 34.5 µM in the experiment with SK-MEL-2 melanoma; 32.7 µM in the experiment with SK-MEL-5 melanoma; 36.8 µM in the experiment on COLO 205 colon. Further, the TGI with 786-0 renal was more than 100 µM; in the experiment with SF-539 CNS, 67.9 µM; with HL-60(TB) leukemia, 39.2 µM; in the experiment on IGROV1 ovarian it was more than 100 µM; in the experiment with MDA-MB-435, 50.2 µM.

Consider `CC(C)(C)N1CSC(=S)N(Cc2ccco2)C1`, for which the TGI in the experiment on SNB-19 CNS came out at 14.5 µM; with NCI-H23 lung, 11.1 µM; in the experiment with OVCAR-3 ovarian, 4.94 µM; with SK-MEL-2 melanoma, 14.6 µM; in the experiment with SK-MEL-5 melanoma it was 14 µM; in the experiment on COLO 205 colon it was 14.7 µM. Moreover, the TGI with 786-0 renal was 11.5 µM; with SF-539 CNS it was 2.62 µM; in the experiment with HL-60(TB) leukemia it was 4.03 µM; in the experiment on IGROV1 ovarian, 12.6 µM; in the experiment on MDA-MB-435, 13.4 µM.

Take `O=C(N/N=C(/COc1ccc(Cl)cc1)N=Cc1ccncc1)c1ccncc1`: the TGI in the experiment with SNB-19 CNS, in the experiment on NCI-H23 lung, with OVCAR-3 ovarian, in the experiment with SK-MEL-2 melanoma, in the experiment with COLO 205 colon and with 786-0 renal was more than 100 µM throughout. For the same molecule, the TGI in the experiment with SF-539 CNS, with HL-60(TB) leukemia, in the experiment with IGROV1 ovarian and in the experiment on MDA-MB-435 was more than 100 µM throughout.

As to `CC(=O)NC(Cc1ccc(O)cc1)C(=O)O` (stereo unspecified), the TGI in the experiment on SNB-19 CNS, with NCI-H23 lung, in the experiment on OVCAR-3 ovarian, in the experiment on SK-MEL-2 melanoma, in the experiment with SK-MEL-5 melanoma and in the experiment on COLO 205 colon was more than 100 µM in each case. The TGI in the experiment with 786-0 renal, in the experiment with HL-60(TB) leukemia, in the experiment on IGROV1 ovarian and in the experiment with MDA-MB-435 was more than 100 µM throughout.

Regarding `c1ccc(N=c2sc3ccccc3nc2Nc2ccccc2)cc1`, the TGI in the experiment on SNB-19 CNS, in the experiment with NCI-H23 lung, in the experiment on SK-MEL-2 melanoma, in the experiment on SK-MEL-5 melanoma, in the experiment on COLO 205 colon and with 786-0 renal was more than 100 µM in each case. In addition, the TGI in the experiment on SF-539 CNS, with HL-60(TB) leukemia, with IGROV1 ovarian and in the experiment on MDA-MB-435 was more than 100 µM in each case.

Turning to `O=C(NC(=O)c1ccccc1[N+](=O)[O-])Nc1ccc(Oc2ncc(Br)cn2)c(Cl)c1`, the GI50 is 0.0693 µM in the experiment with SNB-19 CNS; less than 0.0209 µM in the experiment on NCI-H23 lung; less than 0.0158 µM with OVCAR-3 ovarian; 0.321 µM with SK-MEL-2 melanoma; 0.04 µM in the experiment with SK-MEL-5 melanoma; less than 0.0188 µM with COLO 205 colon. In addition, the GI50 in the experiment on HL-60(TB) leukemia is 0.0273 µM. The TGI is 0.0767 µM in the experiment on OVCAR-3 ovarian; 2.22 µM in the experiment on COLO 205 colon; 0.0524 µM with SF-539 CNS; 0.0336 µM and 0.0807 µM in the experiment with HL-60(TB) leukemia; 0.0312 µM with MDA-MB-435.

In the case of `NC(=O)NCCCC(NC(=O)OCCCCn1ccc(=O)[nH]c1=O)C(=O)O` (stereo unspecified), the TGI in the experiment with SNB-19 CNS, in the experiment on NCI-H23 lung, in the experiment on OVCAR-3 ovarian, in the experiment with SK-MEL-2 melanoma, with COLO 205 colon and with 786-0 renal was more than 100 µM each time. Besides, the TGI with SF-539 CNS, in the experiment on HL-60(TB) leukemia, in the experiment on IGROV1 ovarian and in the experiment on MDA-MB-435 was more than 100 µM each time.

Regarding `O=C1CCCc2cc3c(cc21)CC1(Cc2ccccc2C1)C3`, the TGI is more than 100 µM in the experiment with NCI-H23 lung; 6.1 µM in the experiment on OVCAR-3 ovarian; more than 100 µM with SK-MEL-2 melanoma; 16.2 µM with SK-MEL-5 melanoma; 5.11 µM with COLO 205 colon; 29.6 µM with 786-0 renal. The TGI in the experiment on SF-539 CNS is 18.7 µM; with HL-60(TB) leukemia, 5.02 µM; with IGROV1 ovarian, more than 100 µM; in the experiment on MDA-MB-435, 4.61 µM.

Regarding `N#CCCC1C(C#N)C2(Cl)CC1(Cl)C(Cl)=C2Cl` (stereo unspecified), the TGI in the experiment on SNB-19 CNS, in the experiment on NCI-H23 lung, in the experiment on OVCAR-3 ovarian, in the experiment on SK-MEL-2 melanoma, with SK-MEL-5 melanoma and in the experiment on COLO 205 colon was more than 10 µM in each case. For the same molecule, the TGI in the experiment with SF-539 CNS, with HL-60(TB) leukemia, in the experiment on IGROV1 ovarian and with MDA-MB-435 was more than 10 µM in each case.

Regarding `COc1ccc2cc(NC(=O)N/N=C\c3ccc([N+](=O)[O-])cc3)ccc2c1`, the TGI is 47.9 µM with SNB-19 CNS; 77.9 µM in the experiment on NCI-H23 lung; more than 100 µM with OVCAR-3 ovarian; more than 100 µM in the experiment with SK-MEL-2 melanoma; more than 100 µM with SK-MEL-5 melanoma; more than 100 µM with COLO 205 colon. Besides, the TGI with 786-0 renal, in the experiment on HL-60(TB) leukemia, in the experiment on IGROV1 ovarian and with MDA-MB-435 was more than 100 µM each time.
